Earlier results on one compound are cited in patent publication US10863739B2 (AgroFresh Inc., priority 2015, dated 2020).

The conditions of the data set: gas.

Consider `CC1=CC1` [1-MCP, 1-Methylcyclopropene], for which the “flammable above a concentration” value is > 13,300 ppm.
